Experimental findings from patent US11053196B2, “Substituted indoline derivatives as dengue viral replication inhibitors” (JANSSEN PHARMACEUTICALS, INC., priority 2017, dated 2021) are described below.

Data set [1] relates to DENV-2 16681 strain. Briefly: DENV-2 antiviral assay (eGFP-labeled virus in Vero cells). Type of data set: cell-based, Dengue virus. The note with it: DENV-2 16681 eGFP, MOI 0.5, 3 days. The protocol:
The antiviral activity of all the compounds of the invention was tested against the DENV-2 16681 strain which was labeled with enhanced green fluorescent protein (eGPF). The culture medium consists of minimal essential medium supplemented with 2% of heat-inactivated fetal calf serum, 0.04% gentamycin (50 mg/mL) and 2 mM of L-glutamine. Vero cells, obtained from ECACC, were suspended in culture medium and 25 μL was added to 384-well plates (2500 cells/well), which already contain the antiviral compounds. Typically, these plates contain a 5-fold serial dilution of 9 dilution steps of the test compound at 200 times the final concentration in 100% DMSO (200 nL). […] Finally, each plate contains wells which are assigned as virus controls (containing cells and virus in the absence of compound), cell controls (containing cells in the absence of virus and compound) and medium controls (containing medium in the absence of cells, virus and compounds). To the wells assigned as medium control, 25 μL of culture medium was added instead of Vero cells. Once the cells are added to the plates, the plates were incubated for 30 minutes at room temperature to allow the cells to distribute evenly within the wells. Next, the plates were incubated in a fully humidified incubator (37° C., 5% CO2) until the next day. Then, DENV-2 strain 16681, labeled with eGFP, was added at a multiplicity of infection (MOI) of 0.5.
Therefore, 15 μL of virus suspension was added to all the wells containing test compound and to the wells assigned as virus control. In parallel, 15 μL of culture medium was added to the medium and cell controls. Next, the plates were incubated for 3 days in a fully humidified incubator (37° C., 5% CO2). At the day of the read out, the eGFP fluorescence was measured using an automated fluorescence microscope at 488 nm (blue laser). Using an in-house LIMS system, inhibition dose response curves for each compound were calculated and the half maximal effective concentration (EC50) was determined. Therefore, the percent inhibition (I) for every test concentration is calculated using the following formula: I=100*(ST−SCC)/(SVC−SCC); ST, SCC and SVC are the amount of eGFP signal in the test compound, cell control and virus control wells, respectively. The EC50 represents the concentration of a compound at which the virus replication is inhibited with 50%, as measured by a 50% reduction of the eGFP fluorescent intensity compared to the virus control. The EC50 is calculated using linear interpolation (Table 1).

The nature of data set [2]: Toxicity in DENV-2 antiviral assay plates (ATPlite cell viability). Conditions: African green monkey, CC50, Vero cells, same plates as DENV-2 antiviral assay. (Cellular ATP, detected with luciferase, serves as a proxy for viable cell number.)
A short description of data set [3]: in vitro. It is filed as cell-based. The note with it: African green monkey. As for the experimental part: The antiviral activity of the compounds of the invention was tested against DENV-1 strain TC974#666 (NCPV), DENV-2 strain 16681, DENV-3 strain H87 (NCPV) and DENV-4 strain H241 (NCPV) in a RT-qPCR assay. Therefore, Vero cells were infected with either DENV-1, or -2, or -3, or -4 in the presence or absence of test compounds. At day 3 post-infection, the cells were lysed and cell lysates were used to prepare cDNA of both a viral target (the 3′UTR of DENV; Table 2) and a cellular reference gene (1-actin, Table 2). Subsequently, a duplex real time PCR was performed on a Lightcycler480 instrument. The generated Cp value is inversely proportional to the amount of RNA expression of these targets. Inhibition of DENV replication by a test compound results in a shift of Cp's for the 3′UTR gene. On the other hand, if a test compound is toxic to the cells, a similar effect on 1-actin expression will be observed. […] In addition, CC50 values are determined based on the C, values acquired for the housekeeping gene β-actin. […]
(§1) Using the LightCycler software and an in-house LIMS system, dose response curves for each compound were calculated and the half maximal effective concentration (EC50) and the half maximal cytotoxic concentration (CC50) were determined (Tables 5-8).

The nature of data set [4]: in vitro. The note with it: African green monkey.
For data set [5], the system named is DENV-3 strain H87. Briefly: Tetravalent RT-qPCR assay, serotype 3. It is filed as cell-based. The note with it: Dengue virus, DENV3, 72 h; RT-qPCR serotype 3 H87, Vero cells, day 3. As for the experimental part: (§2) The antiviral activity of the compounds of the invention was tested against DENV-1 strain TC974#666 (NCPV), DENV-2 strain 16681, DENV-3 strain H87 (NCPV) and DENV-4 strain H241 (NCPV) in a RT-qPCR assay. Therefore, Vero cells were infected with either DENV-1, or -2, or -3, or -4 in the presence or absence of test compounds. At day 3 post-infection, the cells were lysed and cell lysates were used to prepare cDNA of both a viral target (the 3′UTR of DENV; Table 2) and a cellular reference gene (1-actin, Table 2). Subsequently, a duplex real time PCR was performed on a Lightcycler480 instrument. The generated Cp value is inversely proportional to the amount of RNA expression of these targets. Inhibition of DENV replication by a test compound results in a shift of Cp's for the 3′UTR gene. On the other hand, if a test compound is toxic to the cells, a similar effect on 1-actin expression will be observed. The comparative ΔΔCp method is used to calculate EC50, which is based on the relative gene expression of the target gene (3′UTR) normalized with the cellular housekeeping gene (1-actin). In addition, CC50 values are determined based on the C, values acquired for the housekeeping gene β-actin.
(§3) The culture medium consisted of minimal essential medium supplemented with 2% of heat-inactivated fetal calf serum, 0.04% gentamycin (50 mg/mL) and 2 mM of L-glutamine. Vero cells, obtained from ECACC, were suspended in culture medium and 75 μL/well was added in 96-well plates (10000 cells/well), which already contain the antiviral compounds. […] In addition, each plate contains wells which are assigned as virus controls (containing cells and virus in the absence of compound) and cell controls (containing cells in the absence of virus and compound). Once the cells were added in the plates, the plates were incubated in a fully humidified incubator (37° C., 5% CO2) until the next day. Dengue viruses serotype-1, 2, 3 and 4 were diluted in order to obtain a Cp of ˜22-24 in the assay. Therefore, 25 μL of virus suspension was added to all the wells containing test compound and to the wells assigned as virus control. In parallel, 25 μL of culture medium was added to the cell controls. Next, the plates were incubated for 3 days in a fully humidified incubator (37° C., 5% CO2). After 3 days, the supernatant was removed from the wells and the cells were washed twice with ice-cold PBS (−100 μL). The cell pellets within the 96-well plates were stored at −80° C. for at least 1 day. Next, RNA was extracted using the Cells-to-CT™ lysis kit, according to the manufacturer's guideline (Life Technologies). The cell lysates can be stored at −80° C. or immediately used in the reverse transcription step.
(§4) In preparation of the reverse transcription step, mix A (table 3A) was prepared and 7.57 μL/well was dispensed in a 96-well plate. After addition of 5 μL of the cell lysates, a five minute denaturation step at 75° C. was performed (table 3B). Afterwards, 7.43 μL of mix B was added (table 3C) and the reverse transcription step was initiated (table 3D) to generate cDNA.
(§5) Finally, a RT-qPCR mix was prepared, mix C (table 4A), and 22.02 μL/well was dispensed in 96-well LightCycler qPCR plates to which 3 μL of cDNA was added and the qPCR was performed according to the conditions in table 4B on a LightCycler 480.
as §1
(In qPCR the cycle at which signal appears reflects the starting amount.)

Data set [6] relates to DENV-1 strain TC974#666. Briefly: Tetravalent RT-qPCR assay, serotype 1. Type of data set: cell-based. Conditions: Dengue virus, DENV1, 72 h; RT-qPCR serotype 1 TC974#666, Vero cells, day 3. The protocol:
as §2, §3, §4, §5, §1

Data set [7] relates to DENV-2 strain 16681. Briefly: Tetravalent RT-qPCR assay, serotype 2. It is filed as cell-based. The note with it: Dengue virus, DENV2, 72 h; RT-qPCR serotype 2 16681, Vero cells, day 3. As for the experimental part:
as §2, §3, §4, §5, §1

In data set [8] the test system is DENV-4 strain H241. Briefly: Tetravalent RT-qPCR assay, serotype 4. It is filed as cell-based. The note with it: Dengue virus, DENV4, 72 h; RT-qPCR serotype 4 H241, Vero cells, day 3. As for the experimental part:
as §2, §3, §4, §5, §1

The subject of data set [9] is Vero cells. The note with it: African green monkey.

pEC50: −log10 of the molar value. A value given as a limit tells only on which side of the number the result lay.

As a reminder, the pEC50 is the negative decadic logarithm of the EC50, by convention in mol/L. In data set [1], `COc1cc(NC(C(=O)N2CCc3cc(F)c(C(F)(F)F)cc32)c2ccc(Cl)cc2)cc(OCCCC(=O)O)c1` (single isomer, unassigned) [Compound 3A, 4-(3-((1-(4-chlorophenyl)-2-(5-fluoro-6-(trifluoromethyl)indolin-1-yl)-2-oxoethyl)amino)-5-methoxyphenoxy)butanoic acid] had a pEC50 of 7.44. Moreover, the CC50 in data set [2] came out at 12000 nM.

Compound `COc1cc(NC(C(=O)N2CCc3cc(F)c(C(F)(F)F)cc32)c2ccc(Cl)cc2)cc(OCCCC(=O)O)c1` (single isomer, unassigned) [Compound 3B, 4-(3-((1-(4-chlorophenyl)-2-(5-fluoro-6-(trifluoromethyl)indolin-1-yl)-2-oxoethyl)amino)-5-methoxyphenoxy)butanoic acid] gave a CC50 at 3 days in data set [3] above 2500 nM. The compound also gave a CC50 in data set [4] of 13000 nM. Further, the pEC50 is 9.92 in data set [1]; 8.82 in [5]; 10.00 in data set [6]; 10.02 in data set [7]; 7.85 in data set [8].

The compound `COc1cc(NC(C(=O)N2CCc3c(C)cc(OC(F)(F)F)cc32)c2ccc(Cl)cc2)cc(OCCCC(=O)O)c1` (single isomer, unassigned) [Compound 4A, 4-(3-((1-(4-chlorophenyl)-2-(4-methyl-6-(trifluoromethoxy)indolin-1-yl)-2-oxoethyl)amino)-5-methoxyphenoxy)butanoic acid] had a pEC50 in [1] of 7.96. The CC50 in data set [2] stood at 13000 nM.

Consider `COc1cc(NC(C(=O)N2CCc3cc(F)c(OC(F)(F)F)cc32)c2ccc(Cl)cc2)cc(OCCCC(=O)O)c1` (single isomer, unassigned) [Compound 5B, 4-(3-((1-(4-chlorophenyl)-2-(5-fluoro-6-(trifluoromethoxy)indolin-1-yl)-2-oxoethyl)amino)-5-methoxyphenoxy)butanoic acid], for which, in data set [9], the CC50 worked out at 12000 nM. In addition, the pEC50 in [1] was 9.92; in data set [5], 8.59; in [6], 9.48; in data set [7], 9.54; in data set [8], 7.70.

As to `COc1cc(NC(C(=O)N2CCc3ccc(OC(F)(F)F)cc32)c2ccc(F)cc2OC)cc(OCCCC(=O)O)c1` (single isomer, unassigned) [Compound 6B, 4-(3-((1-(4-fluoro-2-methoxyphenyl)-2-oxo-2-(6-(trifluoromethoxy)indolin-1-yl)ethyl)amino)-5-methoxyphenoxy)butanoic acid], the CC50 in [9] was determined as 15000 nM. Moreover, in data set [3], the CC50 at 3 days stood at 13000 nM. In addition, the negative logarithm of the EC50 (pEC50) in [1] is 9.41; in data set [5], 8.25; in data set [6] it was 9.19; in data set [7] it was 9.39; in data set [8] it was 7.54.
